The values below come from US9932340B2, “Substituted indoles” (AbbVie Inc., priority 2014, dated 2018).

Each structure is given as a SMILES string.

Sequence of SUV420H1 enzyme (Q4FZB7 whole entry): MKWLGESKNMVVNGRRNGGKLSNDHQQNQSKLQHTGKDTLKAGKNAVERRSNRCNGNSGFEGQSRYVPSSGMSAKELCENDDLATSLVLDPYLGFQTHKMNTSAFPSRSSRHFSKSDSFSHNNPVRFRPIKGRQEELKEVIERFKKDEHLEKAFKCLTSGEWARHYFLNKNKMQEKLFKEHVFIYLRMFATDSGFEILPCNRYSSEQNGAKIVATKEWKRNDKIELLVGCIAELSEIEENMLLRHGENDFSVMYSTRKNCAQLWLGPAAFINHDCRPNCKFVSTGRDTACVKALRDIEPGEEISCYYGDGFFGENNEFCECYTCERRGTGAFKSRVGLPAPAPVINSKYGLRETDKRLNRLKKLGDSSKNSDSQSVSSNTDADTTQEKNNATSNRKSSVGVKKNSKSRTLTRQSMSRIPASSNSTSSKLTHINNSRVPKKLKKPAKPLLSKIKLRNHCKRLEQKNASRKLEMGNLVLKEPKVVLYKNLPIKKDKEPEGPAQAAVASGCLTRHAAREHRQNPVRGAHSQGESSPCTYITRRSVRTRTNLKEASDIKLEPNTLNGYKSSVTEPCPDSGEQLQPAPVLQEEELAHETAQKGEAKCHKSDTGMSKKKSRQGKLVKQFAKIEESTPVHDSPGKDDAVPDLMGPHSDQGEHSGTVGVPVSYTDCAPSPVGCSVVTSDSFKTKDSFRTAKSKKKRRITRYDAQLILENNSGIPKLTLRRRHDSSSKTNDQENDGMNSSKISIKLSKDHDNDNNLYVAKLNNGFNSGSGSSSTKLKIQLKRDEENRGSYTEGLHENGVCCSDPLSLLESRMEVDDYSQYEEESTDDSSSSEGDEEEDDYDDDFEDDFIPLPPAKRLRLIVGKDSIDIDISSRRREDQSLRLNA

The target of the experiment is SUV420H1 enzyme (Homo sapiens, UniProt Q4FZB7). The experiment can be described thus: TR-FRET SAH SUV420H1 enzyme inhibition assay. The class given is biochemical. The note with it: Histone Peptide H4(8-30)me1 and SAM, overnight at room temp, TR-FRET detection of SAH, read-out: TR-FRET SAH_SUV420H1 IC50. The procedure:
Test compounds were dispensed by a Labcyte Echo in 384-well low volume assay plates with 3-fold serial dilutions from 50 μM to 0.00075 μM. 5 μL of SUV420H1 enzyme (Abbvie) at 90 nM was added to all wells except the no enzyme control wells, and incubated for 30 minutes at room temp before 5 μL of Histone Peptide H4(8-30)me1 (Anaspec) at 5 nM and SAM at 4 nM was added to all wells. The plates were incubated in a humidified chamber overnight at room temp and then 10 μL of the detection reagent that contained RIPA buffer (50 mM Tris-HCl, pH 8.0, 150 mM sodium chloride, 1.0% Igepal CA-630 (NP-40), 0.5% sodium deoxycholate and 0.1% sodium dodecyl sulfate) (Sigma) with 2 nM of Terbium chelate anti S-adenosyl-L-homocysteine (SAH) (Abbvie) antibody and Oregon Green labeled SAH at 4 nM was added. The plates were further incubated for 4 hours at room temperature. The plates were read in a Perkin Elmer Envision using a TR-FRET protocol with Excitation set at 335 nm and Emission at 520 and 495 nm. To generate dose response curves the data is normalized to percent inhibition by setting the average of the plus and minus enzyme control wells to 0% and 100% inhibition respectively. The IC50 values for the compounds are generated by fitting the normalized data with Accelrys Assay Explorer 3.3 to a sigmoidal curve model using […] regression, Y=(100*x^n)/(K^n+x^n), where Y is the measured response, x is the compound concentration, n is the Hill Slope and K is the IC50 and the lower and higher asymptotes are constrained to 0 and 100 respectively.
(In general: Time-resolved FRET reads energy transfer from a long-lived donor to a nearby acceptor.)
The term IC50 denotes the concentration that gives 50% inhibition. With `Cn1nccc1C(=O)NCc1cc2cc(Cl)cc(Cn3cnc4c(N)ncnc43)c2[nH]1` [Example 152, N-({7-[(6-amino-9H-purin-9-yl)methyl]-5-chloro-1H-indol-2-yl}methyl)-1-methyl-1H-pyrazole-5-carboxamide], the IC50 was 1080 nM.
As for `Nc1ncnc2c1ncn2Cc1cc(Cl)cc2cc(CNCc3c(Cl)cccc3Cl)[nH]c12` [Example 211, 9-[(5-chloro-2-{[(2,6-dichlorobenzyl)amino]methyl}-1H-indol-7-yl)methyl]-9H-purin-6-amine], the IC50 was found to be 9330 nM.
On to `CC(C)(O)CC(=O)NCc1cc2cc(Cl)cc(Cn3cnc4c(N)ncnc43)c2[nH]1` [Example 103, N-({7-[(6-amino-9H-purin-9-yl)methyl]-5-chloro-1H-indol-2-yl}methyl)-3-hydroxy-3-methylbutanamide], for which the half-maximal inhibitory concentration (IC50) came out at 25300 nM.
Regarding `Cc1cccc(F)c1CNCc1cc2cc(Cl)cc(Cn3cnc4c(N)ncnc43)c2[nH]1` [Example 244, 9-[(5-chloro-2-{[(2-fluoro-6-methylbenzyl)amino]methyl}-1H-indol-7-yl)methyl]-9H-purin-6-amine], the IC50 turned out to be 1940 nM.
The same measure for `N#Cc1cccc(CNCc2cc3cc(Cl)cc(Cn4cnc5c(N)ncnc54)c3[nH]2)c1` [Example 268, 3-{[({7-[(6-amino-9H-purin-9-yl)methyl]-5-chloro-1H-indol-2-yl}methyl)amino]methyl}benzonitrile]: 4640 nM; for `Nc1ncnc2c1ncn2Cc1cc(Cl)cc2cc(CNC(=O)C3CCCCC3)[nH]c12` [Example 128, N-({7-[(6-amino-9H-purin-9-yl)methyl]-5-chloro-1H-indol-2-yl}methyl)cyclohexanecarboxamide]: 3340 nM; for `Cc1cccc(CNCc2cc3cc(Cl)cc(Cn4cnc5c(N)ncnc54)c3[nH]2)c1F` [Example 245, 9-[(5-chloro-2-{[(2-fluoro-3-methylbenzyl)amino]methyl}-1H-indol-7-yl)methyl]-9H-purin-6-amine]: 2030 nM.
On to `CC(=O)N1CCC(c2cc(Cn3cnc4c(N)ncnc43)c3[nH]c(CN)cc3c2)CC1` [Example 17, 1-(4-{2-(aminomethyl)-7-[(6-amino-9H-purin-9-yl)methyl]-1H-indol-5-yl}piperidin-1-yl)ethanone], for which the IC50 was determined as 635 nM.
The same measure for `COc1ccccc1CNC(=O)NCc1cc2cc(Cl)cc(Cn3cnc4c(N)ncnc43)c2[nH]1` [Example 312, 1-({7-[(6-amino-9H-purin-9-yl)methyl]-5-chloro-1H-indol-2-yl}methyl)-3-(2-methoxybenzyl)urea]: greater than 50000 nM; for `Nc1ncnc2c1ncn2Cc1cc(Cl)cc2cc(CNC(=O)c3cnoc3C3CC3)[nH]c12` [Example 189, N-({7-[(6-amino-9H-purin-9-yl)methyl]-5-chloro-1H-indol-2-yl}methyl)-5-cyclopropyl-1,2-oxazole-4-carboxamide]: 3360 nM.
Consider `CS(=O)(=O)c1ccc(-c2ccc(Cn3cnc4c(N)ncnc43)c3[nH]c(CN)cc23)cc1` [Example 81, 9-({2-(aminomethyl)-4-[4-(methylsulfonyl)phenyl]-1H-indol-7-yl}methyl)-9H-purin-6-amine], for which the IC50 amounted to 334 nM.
Consider `Nc1ncnc2c1ncn2Cc1cc(Cl)cc2cc(CNC(=O)c3ccccn3)[nH]c12` [Example 195, N-({7-[(6-amino-9H-purin-9-yl)methyl]-5-chloro-1H-indol-2-yl}methyl)pyridine-2-carboxamide], for which the IC50 was greater than 50000 nM.
Turning to `Cn1cc(-c2ccc(Cn3cnc4c(N)ncnc43)c3[nH]c(CN)cc23)cn1` [Example 68, 9-{[2-(aminomethyl)-4-(1-methyl-1H-pyrazol-4-yl)-1H-indol-7-yl]methyl}-9H-purin-6-amine], the IC50 came out at 972 nM.
Consider `Cn1cnc2cc(C(=O)NCc3cc4cc(Cl)cc(Cn5cnc6c(N)ncnc65)c4[nH]3)ccc21` [Example 361, N-({7-[(6-amino-9H-purin-9-yl)methyl]-5-chloro-1H-indol-2-yl}methyl)-1-methyl-1H-benzimidazole-5-carboxamide], for which the IC50 was 2150 nM.
On to `CN(C)C(=O)c1cccc(-c2cc(Cn3cnc4c(N)ncnc43)c3[nH]c(CN)cc3c2)c1` [Example 48, 3-{2-(aminomethyl)-7-[(6-amino-9H-purin-9-yl)methyl]-1H-indol-5-yl}-N,N-dimethylbenzamide], for which the half-maximal inhibitory concentration (IC50) stood at 1330 nM.
As for `N#Cc1ccc(C(=O)NCc2cc3cc(C4=CCNCC4)cc(Cn4cnc5c(N)ncnc54)c3[nH]2)c(F)c1` [Example 286, N-({7-[(6-amino-9H-purin-9-yl)methyl]-5-(1,2,3,6-tetrahydropyridin-4-yl)-1H-indol-2-yl}methyl)-4-cyano-2-fluorobenzamide], the IC50 was 41.1 nM.
Under `Cc1noc(C)c1C(=O)NCc1cc2cc(-c3cccc(C(=O)N(C)C)c3)cc(Cn3cnc4c(N)ncnc43)c2[nH]1` [Example 177, N-({7-[(6-amino-9H-purin-9-yl)methyl]-5-[3-(dimethylcarbamoyl)phenyl]-1H-indol-2-yl}methyl)-3,5-dimethyl-1,2-oxazole-4-carboxamide] stands 106 nM; under `Cc1cccc(Cl)c1CNCc1cc2cc(Cl)cc(Cn3cnc4c(N)ncnc43)c2[nH]1` [Example 243], 5460 nM; under `N#Cc1cccc(-c2ccc(Cn3cnc4c(N)ncnc43)c3[nH]c(CN)cc23)c1` [Example 83, 3-{2-(aminomethyl)-7-[(6-amino-9H-purin-9-yl)methyl]-1H-indol-4-yl}benzonitrile], 831 nM.
As to `COc1ccc(CCC(=O)NCc2cc3cc(Cl)cc(Cn4cnc5c(N)ncnc54)c3[nH]2)cc1` [Example 315, N-({7-[(6-amino-9H-purin-9-yl)methyl]-5-chloro-1H-indol-2-yl}methyl)-3-(4-methoxyphenyl)propanamide], the IC50 was determined as 4080 nM.
Consider `COCCC(=O)NCc1cc2cc(Cl)cc(Cn3cnc4c(N)ncnc43)c2[nH]1` [Example 100, N-({7-[(6-amino-9H-purin-9-yl)methyl]-5-chloro-1H-indol-2-yl}methyl)-3-methoxypropanamide], for which the IC50 was determined as 10900 nM.
The same measure for `Cn1nnc2cc(C(=O)NCc3cc4cc(Cl)cc(Cn5cnc6c(N)ncnc65)c4[nH]3)ccc21` [Example 352, N-({7-[(6-amino-9H-purin-9-yl)methyl]-5-chloro-1H-indol-2-yl}methyl)-1-methyl-1H-benzotriazole-5-carboxamide]: 1280 nM.
Under `Nc1ncnc2c1ncn2Cc1cc(Cl)cc2cc(CNCc3ccc(Cl)c(Cl)c3)[nH]c12` [Example 213, 9-[(5-chloro-2-{[(3,4-dichlorobenzyl)amino]methyl}-1H-indol-7-yl)methyl]-9H-purin-6-amine] stands 2760 nM.
The same measure for `CC(C)(C)OC(=O)N1CCC[C@@H]1C(=O)NCc1cc2cc(Cl)cc(Cn3cnc4c(N)ncnc43)c2[nH]1` [Example 124, tert-butyl (2R)-2-[({7-[(6-amino-9H-purin-9-yl)methyl]-5-chloro-1H-indol-2-yl}methyl)carbamoyl]pyrrolidine-1-carboxylate]: 23900 nM.
For `C=Cc1ccc2cc(CN)[nH]c2c1Cn1cnc2c(N)ncnc21` [Example 59, 9-{[2-(aminomethyl)-6-ethenyl-1H-indol-7-yl]methyl}-9H-purin-6-amine], the IC50 amounted to 7510 nM.
The same measure for `CN(C)CCNC(=O)c1ccc(-c2cc(Cn3cnc4c(N)ncnc43)c3[nH]c(CN)cc3c2)cc1` [Example 49, 4-{2-(aminomethyl)-7-[(6-amino-9H-purin-9-yl)methyl]-1H-indol-5-yl}-N-[2-(dimethylamino)ethyl]benzamide]: 193 nM; for `N#Cc1ccc(CNCc2cc3cc(Cl)cc(Cn4cnc5c(N)ncnc54)c3[nH]2)cc1` [Example 267, 4-{[({7-[(6-amino-9H-purin-9-yl)methyl]-5-chloro-1H-indol-2-yl}methyl)amino]methyl}benzonitrile]: 3430 nM; for `Nc1ncnc2c1ncn2Cc1cc(Cl)cc2cc(CNC(=O)Cc3cccc(Cl)c3)[nH]c12` [Example 252, N-({7-[(6-amino-9H-purin-9-yl)methyl]-5-chloro-1H-indol-2-yl}methyl)-2-(3-chlorophenyl)acetamide]: 2140 nM.
Under `COc1c(C(=O)NCc2cc3cc(Cl)cc(Cn4cnc5c(N)ncnc54)c3[nH]2)cnc2c1c(C)nn2C` [Example 373, N-({7-[(6-amino-9H-purin-9-yl)methyl]-5-chloro-1H-indol-2-yl}methyl)-4-methoxy-1,3-dimethyl-1H-pyrazolo[3,4-b]pyridine-5-carboxamide] stands 84.4 nM.
As to `Nc1ncnc2c1ncn2Cc1cc(Cl)cc2cc(CNC(=O)c3c(F)cccc3Cl)[nH]c12` [Example 227, N-({7-[(6-amino-9H-purin-9-yl)methyl]-5-chloro-1H-indol-2-yl}methyl)-2-chloro-6-fluorobenzamide], the IC50 came to 790 nM.
Turning to `CCC(=O)NCc1cc2cc(Cl)cc(Cn3cnc4c(N)ncnc43)c2[nH]1` [Example 94, N-({7-[(6-amino-9H-purin-9-yl)methyl]-5-chloro-1H-indol-2-yl}methyl)propanamide], the IC50 was found to be 31100 nM.
